Here are results for six compounds from publication PMC8305076, “Comprehensive Evaluation of Biological Effects of Pentathiepins on Various Human Cancer Cell Lines and Insights into Their Mode of Action” (International Journal of Molecular Sciences, 2021).

For series [1], the system named is panel of 14 human cancer cell lines. Nature of the series: MTT cell viability assay, whole panel. As to conditions: for Cytotoxicity: summary grade. The series is classed as cell-based. The arrangement: key to Cytotoxicity: no impact (0); weak impact (+); strong impact (++). The protocol:
(§1) Distinct MTT cell viability and crystal violet cell proliferation assays were performed to assess the cytotoxicity of the compounds 1–6 on 14 human cancer cell lines. In the viability assay, cells with intact mitochondria and thus active dehydrogenases are competent to convert MTT to the corresponding insoluble formazan. The formazan can be photometrically detected after solubilization and allows for indirect conclusions about the viability of the cells as an IC50 value. In the crystal violet assay, cells are stained by the binding of the dye to the chromatin, thus allowing for a quantification of biomass that remains adherent after a treatment in comparison with a control after a specific time. Potency is defined as the growth inhibitory concentration 50% (GI50).
(§2) In addition to performing the cell viability assay under normoxia (19% atmospheric oxygen), incubations were also conducted under hypoxic conditions, i.e., atmospheric oxygen levels of 1% during the treatment for 48 h. Hypoxia is a favorable condition of the tumor microenvironment that is connected with poor outcome. Therefore, the low oxygen condition mimics better the tumor environment. The biological effect of the pentathiepins under this condition provides insight into their dependency for oxygen, which has been postulated a key component in the proposed mechanism of action (Figure 3). Consistent with the proposed mechanism of action for five of the compounds, potency decreased under hypoxic conditions; in fact for 6, the half-maximal inhibitory concentration exceeded the highest tested concentration of 10 µM in four cell lines (Figure 6, Table S3). […] In contrast to the other compounds, in some cell lines, the cytotoxic effects of 1 were more pronounced under oxygen-reduced incubation conditions (Figure 6), indicating a tangential role of oxygen availability for this pentathiepin. Especially for the breast cancer cell line MCF-7, the cytotoxicity increased substantially, indicated by a decrease of the IC50 from >10.0 µM to about 1.0 µM.
The effect of the pentathiepins on the viability of the cell lines was assessed via an MTT assay, performed as previously described. Healthy and viable cells convert the yellow soluble 3-(4,5-dimethylthiazol-2-yl)-2,5-diphenyltetrazolium bromide to the insoluble purple corresponding formazan, which can be spectrophotometrically measured. For this assay, 5000 cells (1 250 for LCLC-103H) in 0.1 mL of medium were seeded per well of a 96-well plate and incubated at standard conditions for 24 h prior to treatment. A serial dilution of the test compounds was prepared in medium, covering final concentrations from 10.0 to 0.04 µM, and 0.1 mL of the working solution was added to each well in triplicate. After 48 h, 20 µL of a 2.5 mg/mL MTT in PBS solution was pipetted into each well and further incubated for 4 h at standard conditions. Thereafter, medium was replaced with 50 µL DMSO, and the plates were put on a shaker for 5 min and subsequently read at λ = 570 nm, with a SpectraMax 384plus (Molecular Devices, Sunnyvale, CA, USA). The cell viabilities of the treatment conditions were calculated in relation to a solvent control sample. The absolute IC50 was calculated via nonlinear regression followed by interpolation of the dose–response graphs in Prism 7 (GraphPad, San Diego, CA, USA). The IC90 was derived from the IC50 by using the slope factor of the dose–response graph with the tool QuickCalcs from GraphPad (GraphPad Software, San Diego, CA, USA). […]
A general note: Tetrazolium assays rely on reduction of a dye to a coloured formazan, in cell work by metabolically active cells.

For series [2] the test system is unchanged. In words: crystal violet proliferation assay, whole panel. Type of series: cell-based. The arrangement: key to Antiproliferative effect: no impact (0); weak impact (+); strong impact (++). The settings on record: for GI50: mean over the cell line panel, normoxia, read-out: GI50 CV, mean per compound; for Antiproliferative effect: summary grade. The procedure:
as §1
The antiproliferative effect of the pentathiepins on human cancer cell lines was analyzed by crystal violet assay based on the protocol of a previous publication. […] After dissolving in ethanol, the optical density was measured. Here, 1000 cells (250 for LCLC-103H) in 0.1 mL of medium were seeded per well of a 96 well plate and incubated at standard conditions for 24 h prior to treatment to allow for adhesion of the cells. A serial dilution of the test compounds was prepared in medium, covering final concentrations from 10.0 to 0.04 µM and 0.1 mL of the working solution added to each well in triplicate. Additionally, samples for each cell line were seeded and directly fixed after 24 h to measure the cell density at the beginning of treatment (t0). Fixation was performed by replacing medium with 0.1 mL of a solution containing 1% glutaraldehyde in Dulbecco’s buffer (0.2 g/L KCl, 0.1 g/L MgSO4·7 H2O, 1.55 g/L Na2HPO4·7 H2O, 0.2 g/L KH2HPO4, and 8 g/L NaCl in water) for 20 min. Plates were stored in 0.1 mL of Dulbecco’s buffer until further processing. After 96 h of treatment, the same fixation process was applied to the plates containing cells and test compounds. To stain the cells, 0.1 mL of an aqueous solution of crystal violet (0.02%) was added per well for 20 min, then discarded and the plates afterwards rinsed in clear water for 30 min. The dye was extracted in 50 µL of ethanol per well during 2 h of shaking. The plates were read at λ = 570 nm using a SpectraMax 384plus (Molecular Devices, Sunnyvale, CA, USA), and the proliferation of the treatment conditions was calculated in relation to a solvent control sample after subtracting the background value of the T0-plates. The GI50 (half-maximal growth inhibitory concentration) was calculated via nonlinear regression followed by interpolation of the dose–response graphs in Prism 7 (GraphPad, San Diego, CA, USA). […]

Another series deals with MCF-7. Nature of the series: MTT cell viability assay. The series is classed as cell-based, human. The protocol:
as §1, §2
The effect of the pentathiepins on the viability of the cell lines was assessed via an MTT assay, performed as previously described. Healthy and viable cells convert the yellow soluble 3-(4,5-dimethylthiazol-2-yl)-2,5-diphenyltetrazolium bromide to the insoluble purple corresponding formazan, which can be spectrophotometrically measured. For this assay, 5000 cells (1 250 for LCLC-103H) in 0.1 mL of medium were seeded per well of a 96-well plate and incubated at standard conditions for 24 h prior to treatment. A serial dilution of the test compounds was prepared in medium, covering final concentrations from 10.0 to 0.04 µM, and 0.1 mL of the working solution was added to each well in triplicate. After 48 h, 20 µL of a 2.5 mg/mL MTT in PBS solution was pipetted into each well and further incubated for 4 h at standard conditions. Thereafter, medium was replaced with 50 µL DMSO, and the plates were put on a shaker for 5 min and subsequently read at λ = 570 nm, with a SpectraMax 384plus (Molecular Devices, Sunnyvale, CA, USA). The cell viabilities of the treatment conditions were calculated in relation to a solvent control sample. The absolute IC50 was calculated via nonlinear regression followed by interpolation of the dose–response graphs in Prism 7 (GraphPad, San Diego, CA, USA). The IC90 was derived from the IC50 by using the slope factor of the dose–response graph with the tool QuickCalcs from GraphPad (GraphPad Software, San Diego, CA, USA).

Where [3] appears, read: Homo sapiens, mean over the cell line panel, hypoxic, read-out: IC50 MTT-H, mean per compound.
Where [4] appears, read: Homo sapiens, mean over the cell line panel, normoxic, read-out: IC50 MTT-N, mean per compound.
The mark [5] stands for this setting: Homo sapiens, MCF7, 48 h, hypoxic (1% O2), read-out: IC50 MTT-H mean.
The mark [6] stands for this setting: Homo sapiens, MCF7, 48 h, normoxic (19% O2), read-out: IC50 MTT-N mean.
Where [7] appears, read: mean over the cell line panel, normoxic, read-out: IC50 MTT-N, mean per compound.

Read-outs that look alike come from different tables or passages of the source.

What is called GI50 is the concentration giving 50% growth inhibition.

Consider `CCOc1c2c(c3ccc(C(=O)N4CCN(C(=O)c5ccc(F)cc5)CC4)cn13)SSSSS2` [Compound 5, (6-Ethoxy-[1,2,3,4,5]pentathiepino[6,7-a]indolizin-9-yl)(4-(4-fluorobenzoyl)piperazinyl)methanone], for which the IC50 in series [1] (setting [3]) is 1290 nM; in series [1] (setting [4]), 839 nM; in the series on MCF-7 (setting [5]), 3010 nM; in the series on MCF-7 (setting [6]) it was 1640 nM. Also, the Cytotoxicity result in series [1] was “++”. Moreover, in series [2] (Homo sapiens), the GI50 was 267 nM. Besides, the Antiproliferative effect entry in series [2] was “++”.

With `CCOc1c2c(c3ccc(C(=O)N4CCCCC4)cn13)SSSSS2` [Compound 2, (6-Ethoxy-[1,2,3,4,5]pentathiepino[6,7-a]indolizin-9-yl)(piperidinyl)methanone], the IC50 is 2190 nM in series [1] (setting [3]), 1380 nM in series [1] (setting [4]), above 10000 nM in the series with MCF-7 (setting [5]) and 3040 nM in the series with MCF-7 (setting [6]). The Cytotoxicity result in series [1] was “+”. Moreover, in series [2] (Homo sapiens), the GI50 came to 493 nM. Besides, the Antiproliferative effect entry in series [2] is recorded as “+”.

For `CCOc1c2c(c3ccc(C(=O)N4CCOCC4)cn13)SSSSS2` [Compound 3, (6-Ethoxy-[1,2,3,4,5]pentathiepino[6,7-a]indolizin-9-yl)(morpholino)methanone], the IC50 in series [1] (setting [3]) stood at 1720 nM; in series [1] (setting [4]), 789 nM; in the series with MCF-7 (setting [5]) it was 3560 nM; in the series on MCF-7 (setting [6]) it was 1680 nM. The Cytotoxicity entry in series [1] is “++”. Besides, the GI50 was 170 nM in series [2] (Homo sapiens) and 174 nM in series [2]. For the same compound, in series [2], the Antiproliferative effect entry is listed as “++”.

On to `CCOc1c2c(c3ccc(C(=O)N(CC)CC)cn13)SSSSS2` [Compound 4, 6-Ethoxy-N,N’-diethyl-[1,2,3,4,5]pentathiepino[6,7-a]indolizine-9-carboxamide], for which the IC50 is 2050 nM in series [1] (setting [3]), 1010 nM in series [1] (setting [4]), 3560 nM in the series on MCF-7 (setting [5]) and 3210 nM with MCF-7 (setting [6]). Also, the Cytotoxicity result in series [1] was “++”. Further, in series [2] (Homo sapiens), the GI50 was 322 nM. Further, in series [2], the Antiproliferative effect entry is listed as “++”.

As for `CCOc1c2c(c3cnc4[nH]c(-c5ccc(OC)cc5)cc4n13)SSSSS2` [Compound 1, 11-Ethoxy-2-(4-methoxyphenyl)-3H-[1,2,3,4,5]pentathiepino[6′,7′:3,4]pyrrolo[1,2-a]pyrrolo[2,3-e]pyrazine], the IC50 is 487 nM in series [1] (setting [3]); 720 nM in series [1] (setting [4]); 716 nM in series [1] (setting [7]); 970 nM in the series with MCF-7 (48 h, hypoxic (1% O2), read-out: IC50 MTT-H mean); around 1000 nM with MCF-7 (setting [5]); above 10000 nM with MCF-7 (setting [6]). In series [1], the Cytotoxicity result is recorded as “++”. In addition, the 50% growth inhibitory concentration (GI50) in series [2] (Homo sapiens) was determined as 333 nM. Moreover, the Antiproliferative effect result in series [2] is listed as “++”.

Consider `CCOc1c2c(c3ccc(C(=O)N4CCN(S(=O)(=O)c5ccc(C)cc5)CC4)cn13)SSSSS2` [Compound 6, (6-Ethoxy-[1,2,3,4,5]pentathiepino[6,7-a]indolizin-9-yl)(4-tosylpiperazinyl)methanone], for which the IC50 in series [1] (Homo sapiens, hypoxic conditions, in four cell lines, exceeded highest tested concentration, read-out: half-maximal inhibitory concentration) is above 10000 nM; in series [1] (setting [3]) it was 2460 nM; in series [1] (setting [4]), 2360 nM; in series [1] (setting [7]), 2360 nM; in the series with MCF-7 (setting [5]), above 10000 nM; in the series with MCF-7 (setting [6]), 3990 nM. Further, in series [1], the Cytotoxicity result is given as “+”. Moreover, the 50% growth inhibitory concentration (GI50) was 570 nM in series [2] (Homo sapiens) and 671 nM in series [2]. Also, the Antiproliferative effect entry in series [2] is listed as “+”.
